Data taken from US20230293535A1, “ERBB/BTK INHIBITORS” (Dizal (Jiangsu) Pharmaceutical Co., Ltd., priority 2018, published 2023).
Structures can show the parent of a compound that is named as a salt. Where two headings read alike, the source gives them in different places.

Columns and labels:
[1] = In vitro human hepatocytes clearance assay; conditions: both, human, cryopreserved human hepatocytes (suspension), human hepatocytes Clint (µL/min/10^6cells), mixed gender human hepatocytes, incubation up to 100 min
Experimental: (§1) The protocol for rat/human hepatocytes metabolic stability assay is employed to determine the clearance of the compounds of the present disclosure in vitro.
(§2) Rat hepatocytes in male gender and human hepatocytes in mixed gender were obtained from commercial vendors (e.g., BioreclamationIVT) and stored at -150° C. prior to use. 10 mM stock solutions of tested compounds were prepared in DMSO. Thawing medium and supplement incubation medium (serum-free) were placed in a 37° C. water bath for at least 15 minutes prior to use. Stock solutions were diluted to 100 µM by combining 198 µL acetonitrile and 2 µL of 10 mM stock solution.
(§3) Vials of cryopreserved hepatocytes were removed from storage, ensured that vials remain at cryogenic temperatures. The vials were thawed in a 37° C. water bath with gently shaking. Vials were kept in water bath until all ice crystals had dissolved and were no longer visible. Vials were sprayed with 70% ethanol before being transferred to a biosafety cabinet. And then the contents were poured into the 50 mL thawing medium conical tube. Vials were centrifuged at 100 g for 10 minutes at room temperature.
(§4) Cell viability and density were counted using a Trypan Blue exclusion, and then cells were diluted with serum-free incubation medium to a working cell density of 1 × 10^6 viable cells/ml. […] The inactivated hepatocytes were used to prepare negative samples, which were used to exclude the misleading factor that resulted from instability of chemical itself.
(§5) Aliquots of 247.5 µL hepatocytes were dispensed into each well of a 96-well non-coated plate. The plate was placed in the incubator on an orbital shaker for approximately 10 minutes. Aliquots of 2.5 µL of the 100 µM test compounds were added into respective wells of the non-coated 96-well plate to start the reaction. This assay was performed in duplicate. The plate was incubated in the incubator on an orbital shaker for the designed time points. […] Samples were centrifuges for 20 minutes at 4000 g and aliquots of 100 µL of the supernatants were used for LC-MS/MS analysis for measurement of test compounds
(§6) In vitro hepatocyte clearance was estimated based on determination of elimination half-life (T½) of compounds disappearance from their initial concentrations. Peak area ratios of each compound (test or control) to IS was calculated. Ln (%Control) versus Incubation Time (min) curve was plotted, and the slope of a linear fitting line was calculated.

[2] = target: T1, human Her2 exon 20 insertion mutation YVMA (Homo sapiens, UniProt P04626, INS775YVMA); assay: Her2 Exon 20 YVMA insertion cellular phosphorylation inhibition (MSD p-Her2 Y1248/total Her2); assay type: cell-based; conditions: Her2 YVMAins cells, 4 h compound;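 also: lentivirally transduced NIH-3T3 cells in 1% FBS medium, electrochemiluminescent MSD read-out, graded compound concentrations at 37 °C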
T1 construct: expressed in transfected cells; host or cells: NIH-3T3, lentiviral transduction, puromycin selection
T1 sequence (P04626 with tags, fused parts or gaps INS775YVMA): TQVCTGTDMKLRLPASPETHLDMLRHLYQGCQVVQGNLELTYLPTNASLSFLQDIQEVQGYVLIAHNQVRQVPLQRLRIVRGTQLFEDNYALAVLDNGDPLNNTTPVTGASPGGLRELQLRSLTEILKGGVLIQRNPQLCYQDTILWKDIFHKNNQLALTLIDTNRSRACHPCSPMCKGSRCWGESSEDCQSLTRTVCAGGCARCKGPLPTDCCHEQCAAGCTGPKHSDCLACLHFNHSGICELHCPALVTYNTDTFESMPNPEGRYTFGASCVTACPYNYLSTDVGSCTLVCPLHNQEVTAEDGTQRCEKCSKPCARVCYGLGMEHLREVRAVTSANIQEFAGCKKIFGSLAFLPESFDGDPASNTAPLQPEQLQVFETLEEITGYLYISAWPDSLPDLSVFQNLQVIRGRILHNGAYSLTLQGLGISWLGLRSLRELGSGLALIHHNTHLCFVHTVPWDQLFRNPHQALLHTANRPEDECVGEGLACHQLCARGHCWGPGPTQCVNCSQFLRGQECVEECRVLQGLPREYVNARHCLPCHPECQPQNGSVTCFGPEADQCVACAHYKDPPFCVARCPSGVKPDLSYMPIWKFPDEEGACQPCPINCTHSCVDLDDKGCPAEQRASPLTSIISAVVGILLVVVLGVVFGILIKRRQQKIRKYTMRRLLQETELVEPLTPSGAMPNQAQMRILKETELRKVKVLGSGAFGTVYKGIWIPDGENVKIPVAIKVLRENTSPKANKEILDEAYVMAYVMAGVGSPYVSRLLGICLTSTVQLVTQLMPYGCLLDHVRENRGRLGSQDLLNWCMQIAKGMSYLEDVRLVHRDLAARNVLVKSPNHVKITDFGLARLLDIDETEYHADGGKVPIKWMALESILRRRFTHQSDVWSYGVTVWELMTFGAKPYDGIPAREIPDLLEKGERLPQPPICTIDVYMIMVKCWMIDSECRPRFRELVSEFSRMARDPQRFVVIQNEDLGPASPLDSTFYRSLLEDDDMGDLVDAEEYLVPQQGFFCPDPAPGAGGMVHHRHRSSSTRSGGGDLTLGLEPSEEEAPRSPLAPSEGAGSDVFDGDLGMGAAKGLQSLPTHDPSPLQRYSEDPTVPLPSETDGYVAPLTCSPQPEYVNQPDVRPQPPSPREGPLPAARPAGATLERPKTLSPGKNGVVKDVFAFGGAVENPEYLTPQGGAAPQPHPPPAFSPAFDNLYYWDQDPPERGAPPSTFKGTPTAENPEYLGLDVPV
Experimental: The resulting cell line expressed phosphorylated Her2 protein and its proliferation depended on the mutation gene, which could be used for in vitro PD and anti-proliferation assays.
(§7) One day before the test, WT or mutant cells were seeded in 96 well plates at appropriate concentrations with corresponding growth media supplemented with 1% FBS, and incubated overnight. The next day, tested compounds at a series of concentrations were added into each individual well of the plates, and the plates were incubated for 4 h at 37° C. with 5% CO2.
The EGFR (Y1068) phosphorylation level (activity) of cells in each well were then measured with MSD kit named “MULTI-SPOT®96 4-Spot HB Prototype EGFR Triplex [sequence]: pEGFR(Tyr1068),pEGFR(Tyr1173), Total EGFR” according to the manufacturer’s instruction (MESO SCALE DISCOVERY, Cat# N45ZB-1). The assay is an electrochemiluminescent method for determining both phosphorylated and total EGFR of cells with an MSD SECTOR® Imager and the ratio of p-EGFR/total EGFR can be generated by the machine. The Her2 (Y1248) phosphorylation level (activity) of cells in each well were measured with MSD Kit named “Phospho-ErbB2 (Tyr1248) Assay Whole Cell Lysate Kit” according to the manufacturer’s instruction (MESO SCALE DISCOVERY, Cat# K151CLD-3). The assay is an electrochemiluminescent method (MESO SCALE DISCOVERY) for determining both phosphorylated and total Her2 of cells with an MSD SECTOR® Imager and then the ratio of p-Her2/total Her2 can be generated by the machine.

TMD-8 cells = assay: BTK (wt) cell proliferation, TMD-8 (CellTiter-Glo, 72 h); assay type: cell-based; conditions: Homo sapiens, TMD8, 72 h, TMD-8 cells, 72 h, CellTiter-Glo; read-out: BTK WT TMD-8 GI50;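 also: viable cells quantified by ATP-based luminescence, proliferation expressed as percent of DMSO control after subtracting a time-zero baseline plate read at dosing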
[3] = target: T2, human EGFR exon 20 V769_D770insASV (Homo sapiens, UniProt P00533, INS769ASV); assay: EGFR Exon20 ASV insertion cellular phosphorylation inhibition (MSD pEGFR Y1068/total EGFR); assay type: cell-based; conditions: Ba/F3 EGFR ASV ins cells, 4 h compound, p-EGFR(Y1068)/total EGFR;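 also: electrochemiluminescent readout on an MSD SECTOR Imager, IL3-independent transduced cells in medium with 1% FBS, compound concentration series at 37 °C and 5% CO2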
T2 construct: expressed in transfected cells; host or cells: Ba/F3 (DSMZ ACC-300), lentiviral transduction, puromycin selection, IL3 depletion
T2 sequence (P00533 with tags, fused parts or gaps INS769ASV): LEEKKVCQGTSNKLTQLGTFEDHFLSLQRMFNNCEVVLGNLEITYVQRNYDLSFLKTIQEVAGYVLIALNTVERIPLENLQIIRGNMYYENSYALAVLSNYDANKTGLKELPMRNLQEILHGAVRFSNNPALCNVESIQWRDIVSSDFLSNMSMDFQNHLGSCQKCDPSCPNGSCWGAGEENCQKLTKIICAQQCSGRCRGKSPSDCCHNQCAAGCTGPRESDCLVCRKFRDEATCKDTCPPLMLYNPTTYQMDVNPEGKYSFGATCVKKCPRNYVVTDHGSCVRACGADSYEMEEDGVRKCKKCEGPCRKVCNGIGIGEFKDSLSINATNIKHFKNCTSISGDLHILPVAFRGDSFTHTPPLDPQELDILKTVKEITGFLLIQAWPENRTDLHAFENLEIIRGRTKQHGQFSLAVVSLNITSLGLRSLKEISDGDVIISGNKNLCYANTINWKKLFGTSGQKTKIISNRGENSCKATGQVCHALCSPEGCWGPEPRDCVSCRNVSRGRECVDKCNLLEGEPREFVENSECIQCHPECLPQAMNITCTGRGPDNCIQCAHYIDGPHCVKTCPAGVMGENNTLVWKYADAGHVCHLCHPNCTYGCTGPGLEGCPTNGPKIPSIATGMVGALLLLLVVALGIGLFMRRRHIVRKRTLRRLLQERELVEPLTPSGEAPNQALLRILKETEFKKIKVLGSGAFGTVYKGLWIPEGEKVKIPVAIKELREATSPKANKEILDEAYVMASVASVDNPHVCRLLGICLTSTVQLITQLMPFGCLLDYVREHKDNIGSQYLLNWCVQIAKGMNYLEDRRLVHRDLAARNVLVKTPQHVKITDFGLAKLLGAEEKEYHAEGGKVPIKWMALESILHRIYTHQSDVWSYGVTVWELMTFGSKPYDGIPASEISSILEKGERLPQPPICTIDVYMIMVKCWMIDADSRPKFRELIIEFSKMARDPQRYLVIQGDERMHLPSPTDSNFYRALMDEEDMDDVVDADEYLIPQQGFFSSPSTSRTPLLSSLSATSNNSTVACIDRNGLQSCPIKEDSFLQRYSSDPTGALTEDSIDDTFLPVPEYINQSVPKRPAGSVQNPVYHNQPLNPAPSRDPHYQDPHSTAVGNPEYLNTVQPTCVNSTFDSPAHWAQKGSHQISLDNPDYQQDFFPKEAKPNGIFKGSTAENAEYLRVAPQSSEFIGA

Ba/F3 EGFR ASV ins cells = assay: Cell proliferation, Ba/F3 EGFR ASV ins (CellTiter-Glo, 72 h); assay type: cell-based; conditions: Ba/F3 EGFR, 72 h;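 also: IL3-independent Ba/F3 cells transduced with EGFR V769_D770insASV, cellular ATP luminescence after compound exposure, growth relative to DMSO control with the day-0 baseline reading subtracted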
[4] = target: T3, human EGFR exon 20 H773_V774insNPH (Homo sapiens, UniProt P00533, INS773NPH); assay: EGFR Exon20 NPH insertion cellular phosphorylation inhibition (MSD pEGFR Y1068/total EGFR); assay type: cell-based; conditions: Ba/F3 EGFR NPH ins cells, 4 h compound, p-EGFR(Y1068)/total EGFR;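 also: IL3-independent Ba/F3 cells with constitutively phosphorylated EGFR, compound exposure at 37 °C under 5% CO2, electrochemiluminescent MSD measurement of the p-EGFR to total EGFR ratio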
T3 construct: host or cells: Ba/F3
T3 sequence (P00533 with tags, fused parts or gaps INS773NPH): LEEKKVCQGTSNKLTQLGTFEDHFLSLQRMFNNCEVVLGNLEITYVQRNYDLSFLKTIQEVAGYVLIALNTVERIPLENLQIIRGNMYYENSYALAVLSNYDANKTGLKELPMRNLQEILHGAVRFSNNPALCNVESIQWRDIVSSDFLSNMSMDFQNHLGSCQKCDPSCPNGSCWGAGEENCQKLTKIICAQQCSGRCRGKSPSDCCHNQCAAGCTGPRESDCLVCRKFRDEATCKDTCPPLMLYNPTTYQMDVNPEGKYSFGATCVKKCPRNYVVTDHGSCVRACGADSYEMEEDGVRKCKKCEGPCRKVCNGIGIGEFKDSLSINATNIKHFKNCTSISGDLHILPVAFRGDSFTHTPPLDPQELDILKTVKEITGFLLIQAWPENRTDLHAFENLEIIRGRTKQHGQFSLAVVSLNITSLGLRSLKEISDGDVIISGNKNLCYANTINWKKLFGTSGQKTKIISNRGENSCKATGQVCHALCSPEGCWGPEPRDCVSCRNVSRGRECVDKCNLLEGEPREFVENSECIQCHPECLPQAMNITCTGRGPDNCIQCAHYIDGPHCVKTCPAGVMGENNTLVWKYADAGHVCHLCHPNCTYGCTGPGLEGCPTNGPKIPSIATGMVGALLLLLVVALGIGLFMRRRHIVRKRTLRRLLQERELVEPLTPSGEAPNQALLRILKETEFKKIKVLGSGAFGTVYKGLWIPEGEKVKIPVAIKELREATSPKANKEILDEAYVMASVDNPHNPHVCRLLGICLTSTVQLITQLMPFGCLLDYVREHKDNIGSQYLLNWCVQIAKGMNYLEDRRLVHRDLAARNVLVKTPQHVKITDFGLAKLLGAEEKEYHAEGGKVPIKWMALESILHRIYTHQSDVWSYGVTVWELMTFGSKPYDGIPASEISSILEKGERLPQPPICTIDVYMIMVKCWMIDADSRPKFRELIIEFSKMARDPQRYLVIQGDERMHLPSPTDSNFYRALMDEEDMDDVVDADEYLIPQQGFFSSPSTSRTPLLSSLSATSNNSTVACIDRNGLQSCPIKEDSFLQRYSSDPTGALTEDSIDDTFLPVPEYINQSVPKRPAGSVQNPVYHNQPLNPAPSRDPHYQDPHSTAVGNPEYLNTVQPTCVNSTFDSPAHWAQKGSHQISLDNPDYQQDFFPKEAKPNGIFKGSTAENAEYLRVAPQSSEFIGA
Experimental: as §7
The EGFR (Y1068) phosphorylation level (activity) of cells in each well were then measured with MSD kit named “MULTI-SPOT®96 4-Spot HB Prototype EGFR Triplex [sequence]: pEGFR(Tyr1068),pEGFR(Tyr1173), Total EGFR” according to the manufacturer’s instruction (MESO SCALE DISCOVERY, Cat# N45ZB-1). The assay is an electrochemiluminescent method for determining both phosphorylated and total EGFR of cells with an MSD SECTOR® Imager and the ratio of p-EGFR/total EGFR can be generated by the machine.

[5] = In vitro rat hepatocytes clearance assay; conditions: male, rat, cryopreserved rat hepatocytes (suspension), rat hepatocytes Clint (µL/min/10^6cells), 1 µM-range incubation up to 100 min
Experimental: as §1, §2, §3, §4, §5, §6

[6] = system: Her2 exon 20 insertion YVMA transduced NIH-3T3 cell line; assay: Cell proliferation, Her2 YVMAins NIH-3T3 (CellTiter-Glo, 72 h); assay type: cell-based; conditions: Mus musculus, NIH3T3, 72 h, Her2 YVMAins cells, 72 h proliferation; read-out: Her2 Exon 20 YVMA insertion GI50;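 also: viable cells quantified by ATP luminescence, growth over a day-zero baseline plate expressed as percent of DMSO control growth, compound dilution series in 10% FBS medium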
Experimental: (§8) WT or mutant cells were seeded in 384 well plates at appropriate concentrations with corresponding growth media supplemented with 10% FBS, for each experiment, identical plates were prepared in duplicates, and the plates were incubated overnight. On the next day, one of each duplicated plates was dosed with tested compounds at a series of concentrations, and another one of the duplicated plate was analysied for G0 value. The dosed plates were incubate for another 72 h at 37° C. with 5% CO2 and the number of viable cells in each well of the G0 plates or the dosed plates were measured by CellTiter-Glo® Luminescent Cell Viability Assay (Promega). This assay is a luminescent method for determining the number viable cells through measurement of cellular ATP concentration by detection of luciferase activity. Detection reagents (15 µl) was dispensed into per well, and the plates were incubate for 30 min at room temperature. Then, the luminescence in each well was measured using the Envision plate reader (PerkinElmer). The percentage of proliferation was calculated based on the formula: %Proliferation= 100 × (G3 value of sample well-Go value)/(G3 value of DMSO control-Go value).

DB cells = assay: BTK (wt) cell proliferation, DB (CellTiter-Glo, 72 h); assay type: cell-based; conditions: Homo sapiens, DB, DB cells, CellTiter-Glo, read-out: Non-BCR activated DB GI50;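 also: DB cells in 384-well plates given a dilution series of compound, viable cells read by ATP luminescence, growth expressed versus DMSO control after subtracting a time-zero plate reading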
OCI-LY-10 cells = assay: BTK (wt) cell proliferation, OCI-LY-10 (CellTiter-Glo, 72 h); assay type: cell-based; conditions: Homo sapiens, OCI-Ly10, 72 h, OCI-LY-10 cells, 72 h, CellTiter-Glo; read-out: BTK WT OCI-LY-10 GI50;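 also: viable cells quantified via cellular ATP luminescence, proliferation given as percent of DMSO control after subtracting a duplicate plate read at time of dosing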
[7] = system: NCI-H1975 EGFR L858R/T790M cells; assay: Cell proliferation, NCI-H1975 EGFR L858R/T790M (CellTiter-Glo, 72 h); assay type: cell-based; conditions: Homo sapiens, NCI-H1975, 72 h;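 also: viable cells quantified by luciferase-based ATP luminescence, proliferation expressed relative to DMSO-treated wells (100%) after subtracting a parallel plate read at the time of dosing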
Experimental: as §8

Ba/F3 EGFR NPH ins cells = assay: Cell proliferation, Ba/F3 EGFR NPH ins (CellTiter-Glo, 72 h); assay type: cell-based; conditions: Ba/F3 EGFR, 72 h;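 also: IL3-independent cells carrying constitutively phosphorylated EGFR, compound dilution series, viable cells quantified by ATP luminescence, growth relative to DMSO wells after subtracting pre-dosing (day 0) baseline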
Experimental: Similar to recombinant human EGFR exon 20 H769_V770insASV Ba/F3 cell line, the recombinant human EGFR exon 20 H773_V774insNPH Ba/F3 cell line also expresses constitutively phosphorylated EGFR protein and proliferates in the absence of IL3, which could be used for in vitro PD and anti-proliferation assays.
as §8

WT EGFR = target: T4, WT EGFR (Homo sapiens, UniProt P00533); assay: WT EGFR cellular phosphorylation inhibition in A-431 (hEGF stimulated, MSD); assay type: cell-based; conditions: A431 cells, 4 h compound, then 100 ng/ml hEGF 10 min;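 also: electrochemiluminescence read-out of EGFR Tyr1068 phosphorylation expressed as ratio to total EGFR, cells kept in medium with 1% FBS, compounds tested as a concentration series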
T4 construct: host or cells: A-431

EGFR L858R&T790M = target: T5, EGFR L858R&T790M (Homo sapiens, UniProt P00533, L858R/T790M); assay: EGFR L858R and T790M cellular phosphorylation inhibition in NCI-H1975 (MSD); assay type: cell-based; conditions: NCI-H1975 cells, 4 h compound, p-EGFR(Y1068)/total EGFR; read-out: EGFR L858R and T790M mutation IC50;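 also: phosphorylated and total EGFR detected by electrochemiluminescence, cells exposed to compound in medium containing 1% FBS at 37 °C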
T5 construct: host or cells: NCI-H1975
T5 sequence (P00533 25-1210 T790M/L858R): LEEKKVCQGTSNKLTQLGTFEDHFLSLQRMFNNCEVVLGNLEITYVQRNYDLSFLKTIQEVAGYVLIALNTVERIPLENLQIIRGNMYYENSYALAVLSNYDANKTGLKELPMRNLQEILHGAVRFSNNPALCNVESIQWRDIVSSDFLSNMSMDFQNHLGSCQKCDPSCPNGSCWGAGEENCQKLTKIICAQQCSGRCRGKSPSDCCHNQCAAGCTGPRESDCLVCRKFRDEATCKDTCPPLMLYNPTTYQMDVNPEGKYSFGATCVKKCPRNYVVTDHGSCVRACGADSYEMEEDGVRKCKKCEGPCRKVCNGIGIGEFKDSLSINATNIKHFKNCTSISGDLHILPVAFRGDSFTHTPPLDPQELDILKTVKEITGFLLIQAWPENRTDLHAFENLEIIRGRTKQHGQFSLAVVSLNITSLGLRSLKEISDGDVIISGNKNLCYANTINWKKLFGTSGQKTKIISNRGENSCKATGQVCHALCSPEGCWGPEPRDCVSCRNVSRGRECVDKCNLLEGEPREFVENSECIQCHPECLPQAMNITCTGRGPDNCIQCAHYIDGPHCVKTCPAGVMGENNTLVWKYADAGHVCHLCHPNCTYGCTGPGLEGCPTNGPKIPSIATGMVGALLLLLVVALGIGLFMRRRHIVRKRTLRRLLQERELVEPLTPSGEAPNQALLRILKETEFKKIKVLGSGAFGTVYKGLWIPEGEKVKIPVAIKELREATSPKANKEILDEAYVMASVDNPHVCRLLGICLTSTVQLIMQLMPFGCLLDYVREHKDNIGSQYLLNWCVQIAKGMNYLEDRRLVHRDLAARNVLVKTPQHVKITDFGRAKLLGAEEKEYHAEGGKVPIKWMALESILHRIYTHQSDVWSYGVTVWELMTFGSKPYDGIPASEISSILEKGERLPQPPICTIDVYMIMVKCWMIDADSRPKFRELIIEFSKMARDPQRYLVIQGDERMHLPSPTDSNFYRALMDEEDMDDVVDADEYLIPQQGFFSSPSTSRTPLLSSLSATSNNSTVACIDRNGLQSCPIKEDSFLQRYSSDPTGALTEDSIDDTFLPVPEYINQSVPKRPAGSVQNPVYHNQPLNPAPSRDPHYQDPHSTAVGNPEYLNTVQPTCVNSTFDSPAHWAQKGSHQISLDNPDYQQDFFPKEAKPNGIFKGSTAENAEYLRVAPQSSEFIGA

WT EGFR cell line A-431 = assay: Cell proliferation, WT EGFR A431 (CellTiter-Glo, 72 h); assay type: cell-based; conditions: Homo sapiens, A-431, 72 h;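 also: proliferation from a luminescent ATP viability signal, expressed as 100 × (treated minus time-zero plate) over (DMSO control minus time-zero plate), cells grown with 10% FBS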
Ri-1 cells = assay: BTK (wt) cell proliferation, Ri-1 (CellTiter-Glo, 72 h); assay type: cell-based; conditions: Ri-1, 72 h, Ri-1 cells, 72 h, CellTiter-Glo; read-out: BTK WT Ri-1 GI50;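 also: viable cells quantified as cellular ATP luminescence, proliferation normalized to a time-zero plate and the DMSO control, compounds tested across a dilution series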
[8] = Ba/F3 EGFR ASV ins, 72 h proliferation, read-out: EGFR Exon20 ASV insertion GI50
[9] = NCI-H1975, 72 h proliferation, read-out: EGFR L858R and T790M mutation GI50
[10] = Ba/F3 EGFR NPH ins, 72 h proliferation, read-out: EGFR Exon20 NPH insertion GI50
[11] = A431, 72 h proliferation, read-out: EGFR WT A431 GI50
[12] = read-out: EGFR Exon20 ASV insertion GI50 (nM)
[13] = read-out: EGFR L858R and T790M mutation GI50 (nM)
[14] = read-out: EGFR Exon20 NPH insertion GI50 (nM)
[15] = read-out: EGFR WT A431 GI50 (nM)

| SMILES | hepatocyte CLint at 1 µM [1] [µL/min/1e6 cells] | IC50 [2] [nM] | GI50 (TMD-8 cells) [nM] | IC50 [3] [nM] | GI50 (Ba/F3 EGFR ASV ins cells; [8]) [nM] | IC50 [4] [nM] | hepatocyte CLint at 1 µM [5] [µL/min/1e6 cells] | GI50 [6] [nM] | GI50 (DB cells) [nM] | GI50 (OCI-LY-10 cells) [nM] | GI50 [7, 9] [nM] | GI50 (Ba/F3 EGFR NPH ins cells; [10]) [nM] | IC50 (WT EGFR) [nM] | IC50 (EGFR L858R&T790M) [nM] | GI50 (WT EGFR cell line A-431; [11]) [nM] | GI50 (Ri-1 cells) [nM] | GI50 (Ba/F3 EGFR ASV ins cells; [12]) [nM] | GI50 [7, 13] [nM] | GI50 (Ba/F3 EGFR NPH ins cells; [14]) [nM] | GI50 (WT EGFR cell line A-431; [15]) [nM] |
| --- | --- | --- | --- | --- | --- | --- | --- | --- | --- | --- | --- | --- | --- | --- | --- | --- | --- | --- | --- | --- |
| C=CC(=O)Nc1cc(Nc2ncnc(Nc3cc(F)c(Cl)cc3C(C)(C)O)n2)c(OC)cc1N1CC[C@@H](N(C)C)C1 [Compound 51, (R)-N-(5-(4-(4-chloro-5-fluoro-2-(2-hydroxypropan-2-yl)phenylamino)-1,3,5-triazin-2-ylamino)-2-(3-(dimethylamino)pyrrolidin-1-yl)-4-methoxyphenyl)acrylamide] | 4.02 | 19.9 | 3.62 | 16.1 | 35.4 | 28.6 | 5.97 | 105 | > 3000 | 6.73 | 1.9 | 52.9 | 12.6 | 1 | 13.4 | 10.3 |  |  |  |  |
| C=CC(=O)Nc1cc(Nc2nccc(Nc3cc(Cl)c(F)cc3C(C)(C)O)n2)c(OC)cc1N1CCC[C@@H]1CN1CCC1 [Compound 98, (R)-N-(2-(2-(azetidin-1-ylmethyl)pyrrolidin-1-yl)-5-(4-(5-chloro-4-fluoro-2-(2-hydroxypropan-2-yl)phenylamino)pyrimidin-2-ylamino)-4-methoxyphenyl) acrylamide formic acid salt] | 7.6 | 3.1 | 71.5 | 21.4 |  | 19.1 |  | 135 | > 3000 | 115 |  |  | 190 | 0.9 |  | 108 | 129 | 3.1 | 112 | 87.8 |
| C=CC(=O)Nc1cc(Nc2nccc(Nc3cc(Cl)c(F)cc3C(C)(C)O)n2)c(OC)cc1N1C[C@@H]2CN(C)[C@@H]2C1 [Compound 97, N-(5-(4-(5-chloro-4-fluoro-2-(2-hydroxypropan-2-yl)phenylamino)pyrimidin-2-ylamino)-4-methoxy-2-((1 S,5 S)-6-methyl-3,6-diazabicyclo[3.2.0]heptan-3-yl)phenyl)acrylamide formic acid salt] | 4.25 | 2.8 | 18.6 | 14.4 |  | 17.4 |  | 93.9 | > 3000 | 24 |  |  | 160 | 0.7 |  | 54.7 | 86.7 | 3.4 | 74.2 | 38 |
| C=CC(=O)Nc1cc(Nc2nccc(Nc3cc(Cl)c(F)cc3C(C)(C)O)n2)c(OC)cc1N1C[C@@H]2CN(C)C[C@@H]21 [Compound 96, N-(5-(4-(5-chloro-4-fluoro-2-(2-hydroxypropan-2-yl)phenylamino)pyrimidin-2-ylamino)-4-methoxy-2-((1S,5R)-3-methyl-3,6-diazabicyclo[3.2.0]heptan-6-yl)phenyl)acrylamide] | 1.42 | 2.1 | 2.8 | 7.1 | 55.6 | 13.5 | 13.2 | 50 | 2990 | 7.04 | 0.8 | 50 | 50.4 | 0.4 | 17.8 | 25.1 |  |  |  |  |
